Results: article PMC5218480 (PLoS ONE, 2017)

Tested on: MV-4-11 cells
Assay: Gene expression microarray analysis (Affymetrix PrimeView) and GSEA
Assay type: cell-based, human
Design: RFU PODN (11730768_x_at) / Fold change /veh PODN (11730768_x_at) / RFU LINC00158 (11744669_a_at) / Fold change /veh LINC00158 (11744669_a_at) / RFU DUSP10 (11751237_a_at) / Fold change /veh DUSP10 (11751237_a_at) / RFU ID3 (11757404_x_at) / Fold change /veh ID3 (11757404_x_at) / RFU PLEKHG5 (11737974_s_at) / Fold change /veh PLEKHG5 (11737974_s_at) / RFU LRRC4B (11730491_at) / Fold change /veh LRRC4B (11730491_at) / RFU GIMAP4 (11747438_a_at) / Fold change /veh GIMAP4 (11747438_a_at) / RFU KRT8 (11758183_x_at) / Fold change /veh KRT8 (11758183_x_at) / RFU CNN1 (11734310_a_at) / Fold change /veh CNN1 (11734310_a_at) / RFU VPS37D (11726825_at) / Fold change /veh VPS37D (11726825_at) / RFU C10orf10 (11716522_x_at) / Fold change /veh C10orf10 (11716522_x_at) / RFU KIR2DL2 /// KIR2DL4 /// KIR2DL5A /// KIR2DL5B /// KIR2DS1 /// KIR2DS2 /// KIR2DS3 /// KIR2DS4 /// KIR3DL3 /// KIR3DL3 /// KIR3DS1 (11738374_at) / Fold change /veh KIR2DL2 /// KIR2DL4 /// KIR2DL5A /// KIR2DL5B /// KIR2DS1 /// KIR2DS2 /// KIR2DS3 /// KIR2DS4 /// KIR3DL3 /// KIR3DL3 /// KIR3DS1 (11738374_at) / RFU C1QL1 (11718748_at) / Fold change /veh C1QL1 (11718748_at) / RFU TMPRSS4 (11747572_a_at) / Fold change /veh TMPRSS4 (11747572_a_at) / RFU HAMP (11756126_x_at) / Fold change /veh HAMP (11756126_x_at) / RFU RNFT2 (11725882_a_at) / Fold change /veh RNFT2 (11725882_a_at) / RFU NR4A2 (11747474_a_at) / Fold change /veh NR4A2 (11747474_a_at) / RFU ABCC12 (11746883_a_at) / Fold change /veh ABCC12 (11746883_a_at) / RFU TMEM136 (11760407_x_at) / Fold change /veh TMEM136 (11760407_x_at) / RFU CLDN22 /// WWC2 (11732394_at) / Fold change /veh CLDN22 /// WWC2 (11732394_at) / RFU HLA-DPB1 (11760878_x_at) / Fold change /veh HLA-DPB1 (11760878_x_at) / RFU SPINT1 (11716480_a_at) / Fold change /veh SPINT1 (11716480_a_at) / RFU GAP43 (11754022_s_at) / Fold change /veh GAP43 (11754022_s_at) / RFU A4GNT (11735810_at) / Fold change /veh A4GNT (11735810_at) / RFU PRB3 (11715151_x_at) / Fold change /veh PRB3 (11715151_x_at) / RFU TUBB4B (11761932_at) / Fold change /veh TUBB4B (11761932_at) / RFU CAPN14 (11732068_a_at) / Fold change /veh CAPN14 (11732068_a_at) / RFU TMCC2 (11721928_a_at) / Fold change /veh TMCC2 (11721928_a_at) / RFU IRGQ (11745062_a_at) / Fold change /veh IRGQ (11745062_a_at) / RFU FAM174B (11720279_a_at) / Fold change /veh FAM174B (11720279_a_at) / RFU TMPRSS4 (11748680_a_at) / Fold change /veh TMPRSS4 (11748680_a_at) / RFU FAM212B (11763350_a_at) / Fold change /veh FAM212B (11763350_a_at) / RFU PLEKHG5 (11743358_a_at) / Fold change /veh PLEKHG5 (11743358_a_at) / RFU ZSCAN30 (11745921_a_at) / Fold change /veh ZSCAN30 (11745921_a_at) / RFU CMKLR1 (11741424_a_at) / Fold change /veh CMKLR1 (11741424_a_at) / RFU LOC101060620 /// MAPK8IP1 (11723275_at) / Fold change /veh LOC101060620 /// MAPK8IP1 (11723275_at) / RFU SPTSSB (11747773_x_at) / Fold change /veh SPTSSB (11747773_x_at) / RFU PRSS12 (11739890_at) / Fold change /veh PRSS12 (11739890_at) / RFU BIN1 (11741810_x_at) / Fold change /veh BIN1 (11741810_x_at) / RFU WNT11 (11732464_a_at) / Fold change /veh WNT11 (11732464_a_at) / RFU C10orf10 (11716521_a_at) / Fold change /veh C10orf10 (11716521_a_at) / RFU C5orf56 (11738089_at) / Fold change /veh C5orf56 (11738089_at) / RFU CYB561 (11721691_x_at) / Fold change /veh CYB561 (11721691_x_at) / RFU ANKRD19P (11752326_a_at) / Fold change /veh ANKRD19P (11752326_a_at) / RFU OR2T12 /// OR2T33 /// OR2T8 (11738714_s_at) / Fold change /veh OR2T12 /// OR2T33 /// OR2T8 (11738714_s_at) / RFU VCAN (11748164_a_at) / Fold change /veh VCAN (11748164_a_at) / RFU JSRP1 (11732532_at) / Fold change /veh JSRP1 (11732532_at) / RFU KRTAP10-11 (11738290_x_at) / Fold change /veh KRTAP10-11 (11738290_x_at) / RFU MYO3A (11730013_a_at) / Fold change /veh MYO3A (11730013_a_at) / RFU EBF3 (11725865_a_at) / Fold change /veh EBF3 (11725865_a_at) / RFU CAMK2N1 (11719241_x_at) / Fold change /veh CAMK2N1 (11719241_x_at) / RFU C5orf56 (11738088_a_at) / Fold change /veh C5orf56 (11738088_a_at) / RFU OLFML3 (11715873_a_at) / Fold change /veh OLFML3 (11715873_a_at) / RFU LOC100653217 /// NTM (11731650_a_at) / Fold change /veh LOC100653217 /// NTM (11731650_a_at) / RFU MAPK11 (11762145_a_at) / Fold change /veh MAPK11 (11762145_a_at) / RFU FIZ1 (11724087_x_at) / Fold change /veh FIZ1 (11724087_x_at) / RFU OASL (11726364_x_at) / Fold change /veh OASL (11726364_x_at) / RFU SOX15 (11748057_x_at) / Fold change /veh SOX15 (11748057_x_at) / RFU CD79A (11719716_a_at) / Fold change /veh CD79A (11719716_a_at) / RFU HIST1H1D (11736915_at) / Fold change /veh HIST1H1D (11736915_at) / RFU CASKIN2 (11723855_a_at) / Fold change /veh CASKIN2 (11723855_a_at) / RFU LOC730098 (11760151_x_at) / Fold change /veh LOC730098 (11760151_x_at) / RFU OR4N2 (11742367_at) / Fold change /veh OR4N2 (11742367_at) / RFU PRRT2 (11749266_a_at) / Fold change /veh PRRT2 (11749266_a_at) / RFU SNX32 (11753110_a_at) / Fold change /veh SNX32 (11753110_a_at) / RFU CDHR5 (11726645_a_at) / Fold change /veh CDHR5 (11726645_a_at) / RFU RCAN1 (11760418_a_at) / Fold change /veh RCAN1 (11760418_a_at) / RFU FAM167A (11723789_a_at) / Fold change /veh FAM167A (11723789_a_at) / RFU FAM26E (11764081_at) / Fold change /veh FAM26E (11764081_at) / RFU ISYNA1 (11749810_s_at) / Fold change /veh ISYNA1 (11749810_s_at) / RFU ACY1 (11761880_at) / Fold change /veh ACY1 (11761880_at) / RFU 11764098_at / Fold change /veh 11764098_at / RFU SAMD14 (11745864_x_at) / Fold change /veh SAMD14 (11745864_x_at) / RFU NPB (11741838_a_at) / Fold change /veh NPB (11741838_a_at) / RFU TMPRSS6 (11731388_a_at) / Fold change /veh TMPRSS6 (11731388_a_at) / RFU KRTAP10-2 (11738614_at) / Fold change /veh KRTAP10-2 (11738614_at) / RFU ARHGAP8 /// PRR5-ARHGAP8 (11727945_x_at) / Fold change /veh ARHGAP8 /// PRR5-ARHGAP8 (11727945_x_at) / RFU KRTAP5-7 /// NADSYN1 (11734609_at) / Fold change /veh KRTAP5-7 /// NADSYN1 (11734609_at) / RFU RASL12 (11751679_a_at) / Fold change /veh RASL12 (11751679_a_at) / RFU CDKN2B (11736163_a_at) / Fold change /veh CDKN2B (11736163_a_at) / RFU PRF1 (11729649_at) / Fold change /veh PRF1 (11729649_at) / RFU, ZNF638 /// ZNF638-IT1 / Fold change vs veh, ZNF638 /// ZNF638-IT1 / RFU, PANK3 / Fold change vs veh, PANK3 / RFU, SH3YL1 / Fold change vs veh, SH3YL1 / RFU, ZEB2 / Fold change vs veh, ZEB2 / RFU, NRIP1 / Fold change vs veh, NRIP1 / RFU, PTTG1IP / Fold change vs veh, PTTG1IP / RFU, CAPN2 / Fold change vs veh, CAPN2 / RFU, MED14 / Fold change vs veh, MED14 / RFU, SNORA58 / Fold change vs veh, SNORA58 / RFU, C1orf63 / Fold change vs veh, C1orf63 / RFU, LRRFIP1 / Fold change vs veh, LRRFIP1 / RFU, NDUFAF7 / Fold change vs veh, NDUFAF7 / RFU, SLC12A2 / Fold change vs veh, SLC12A2 / RFU, IBTK / Fold change vs veh, IBTK / RFU, ESF1 / Fold change vs veh, ESF1 / Fold change vs veh, TMEM50B / RFU, TAOK1 / Fold change vs veh, TAOK1 / RFU, ACBD3 / Fold change vs veh, ACBD3 / RFU, TMA16 / Fold change vs veh, TMA16 / RFU, RWDD3 / Fold change vs veh, RWDD3 / RFU, BCAT1 / Fold change vs veh, BCAT1 / RFU, EDEM3 / Fold change vs veh, EDEM3 / RFU, TMEM33 / Fold change vs veh, TMEM33 / RFU, WDR75 / Fold change vs veh, WDR75 / RFU, AHCTF1 / Fold change vs veh, AHCTF1 / RFU, TFRC / Fold change vs veh, TFRC / RFU, ZDHHC17 / Fold change vs veh, ZDHHC17 / RFU, NOM1 / Fold change vs veh, NOM1 / RFU, ARL8B / Fold change vs veh, ARL8B / RFU, ZBTB11 / Fold change vs veh, ZBTB11 / RFU, TAMM41 / Fold change vs veh, TAMM41 / RFU, KIAA1704 /// LOC100996395 / Fold change vs veh, KIAA1704 /// LOC100996395 / RFU, ING1 / Fold change vs veh, ING1 / RFU, TRMT61B / Fold change vs veh, TRMT61B / RFU, FUBP3 / Fold change vs veh, FUBP3 / RFU, TP53 / Fold change vs veh, TP53 / RFU, TNKS2 / Fold change vs veh, TNKS2 / RFU, ZFP14 / Fold change vs veh, ZFP14 / RFU, ACTR2 / Fold change vs veh, ACTR2 / RFU, PPP3R1 / Fold change vs veh, PPP3R1 / RFU, PIK3R1 / Fold change vs veh, PIK3R1 / RFU, HNRNPA1 / Fold change vs veh, HNRNPA1 / RFU, RNF170 / Fold change vs veh, RNF170 / RFU, ZNF28 / Fold change vs veh, ZNF28 / RFU, RNGTT / Fold change vs veh, RNGTT / RFU, OGT / Fold change vs veh, OGT / RFU, BRD1 / Fold change vs veh, BRD1 / RFU, MARS / Fold change vs veh, MARS / RFU, ZNF655 / Fold change vs veh, ZNF655 / RFU, FAHD1 / Fold change vs veh, FAHD1 / RFU, BDP1 / Fold change vs veh, BDP1 / RFU, LRRCC1 / Fold change vs veh, LRRCC1 / RFU, ARID1A / Fold change vs veh, ARID1A / RFU, ZNF146 / Fold change vs veh, ZNF146 / RFU, ZNF330 / Fold change vs veh, ZNF330 / RFU, GPN3 / Fold change vs veh, GPN3 / RFU, C9orf123 / Fold change vs veh, C9orf123 / RFU, N4BP2L2 / Fold change vs veh, N4BP2L2 / RFU, ARFIP1 / Fold change vs veh, ARFIP1 / RFU, FAM179B / Fold change vs veh, FAM179B / RFU, BCL10 / Fold change vs veh, BCL10 / RFU, UHRF1BP1L / Fold change vs veh, UHRF1BP1L / RFU, BET1 / Fold change vs veh, BET1 / RFU, CNOT2 / Fold change vs veh, CNOT2 / RFU, ZNF268 / Fold change vs veh, ZNF268 / Fold change vs veh, ZNF507 / RFU, DGCR2 / Fold change vs veh, DGCR2 / RFU, WDSUB1 / Fold change vs veh, WDSUB1 / Fold change vs veh, HSP90B1 /// MIR3652 / RFU, ADSS / Fold change vs veh, ADSS / RFU, GK / Fold change vs veh, GK / RFU, ZNF148 / Fold change vs veh, ZNF148 / RFU, TAF9 / Fold change vs veh, TAF9 / RFU, SLC1A5 / Fold change vs veh, SLC1A5 / RFU, SLMO2 / Fold change vs veh, SLMO2 / RFU, ABCC4 / Fold change vs veh, ABCC4 / RFU, LOC101060439 /// RAP1B / Fold change vs veh, LOC101060439 /// RAP1B / RFU, RFX7 / Fold change vs veh, RFX7 / RFU, GTPBP10 / Fold change vs veh, GTPBP10 / RFU, CNEP1R1 / Fold change vs veh, CNEP1R1 / RFU, BIVM-ERCC5 /// ERCC5 / Fold change vs veh, BIVM-ERCC5 /// ERCC5 / RFU, ILF3 / Fold change vs veh, ILF3 / RFU 11762660_at / Fold change /veh 11762660_at / RFU VCAN (11757783_s_at) / Fold change /veh VCAN (11757783_s_at) / RFU DDX43 (11728927_at) / Fold change /veh DDX43 (11728927_at) / RFU KRT8 (11758188_x_at) / Fold change /veh KRT8 (11758188_x_at) / RFU NKD1 (11759106_at) / Fold change /veh NKD1 (11759106_at) / RFU SRD5A1 (11742802_a_at) / Fold change /veh SRD5A1 (11742802_a_at) / RFU TPSAB1 /// TPSB2 (11721975_s_at) / Fold change /veh TPSAB1 /// TPSB2 (11721975_s_at) / RFU GSTM3 (11746129_a_at) / Fold change /veh GSTM3 (11746129_a_at) / RFU IL23R (11737362_x_at) / Fold change /veh IL23R (11737362_x_at) / RFU TMEM51 (11727254_a_at) / Fold change /veh TMEM51 (11727254_a_at) / RFU PIWIL2 (11732686_x_at) / Fold change /veh PIWIL2 (11732686_x_at) / RFU ORM1 (11744905_x_at) / Fold change /veh ORM1 (11744905_x_at) / RFU CCDC152 (11743942_at) / Fold change /veh CCDC152 (11743942_at) / RFU ECM1 (11717891_a_at) / Fold change /veh ECM1 (11717891_a_at) / RFU IL23R (11748794_a_at) / Fold change /veh IL23R (11748794_a_at) / RFU TNFAIP8L3 (11732012_x_at) / Fold change /veh TNFAIP8L3 (11732012_x_at) / RFU MBOAT4 (11741988_at) / Fold change /veh MBOAT4 (11741988_at) / RFU 11764193_at / Fold change /veh 11764193_at / RFU TMEM53 (11763286_at) / Fold change /veh TMEM53 (11763286_at) / RFU MAGEB2 (11727129_at) / Fold change /veh MAGEB2 (11727129_at) / RFU TMEM200A (11744735_a_at) / Fold change /veh TMEM200A (11744735_a_at) / RFU CCDC152 (11751479_a_at) / Fold change /veh CCDC152 (11751479_a_at) / RFU FAM211A (11726209_a_at) / Fold change /veh FAM211A (11726209_a_at) / RFU RGS16 (11746705_a_at) / Fold change /veh RGS16 (11746705_a_at) / RFU VCAN (11755009_s_at) / Fold change /veh VCAN (11755009_s_at) / RFU RHOB (11743442_s_at) / Fold change /veh RHOB (11743442_s_at) / RFU RGS16 (11720943_a_at) / Fold change /veh RGS16 (11720943_a_at) / RFU RGS16 (11720944_at) / Fold change /veh RGS16 (11720944_at) / RFU, VPS4B / Fold change vs veh, VPS4B / RFU, CREB1 / Fold change vs veh, CREB1 / RFU, DNAJC13 / Fold change vs veh, DNAJC13 / RFU, GNAQ / Fold change vs veh, GNAQ / RFU, CDK5R1 / Fold change vs veh, CDK5R1 / RFU, ZRANB3 / Fold change vs veh, ZRANB3 / RFU, CUL4A / Fold change vs veh, CUL4A / RFU, CCNY / Fold change vs veh, CCNY / RFU, UFL1 / Fold change vs veh, UFL1 / RFU, COG3 / Fold change vs veh, COG3 / RFU, DIAPH2 / Fold change vs veh, DIAPH2 / RFU, SKA2 / Fold change vs veh, SKA2 / RFU, AFF3 / Fold change vs veh, AFF3 / RFU, LMF1 / Fold change vs veh, LMF1 / RFU, IPO11 / Fold change vs veh, IPO11 / RFU, DFFB / Fold change vs veh, DFFB / RFU, FOXP1 / Fold change vs veh, FOXP1 / RFU, CARD8 / Fold change vs veh, CARD8 / RFU, STRN3 / Fold change vs veh, STRN3 / RFU, ADK / Fold change vs veh, ADK / RFU, RASSF2 / Fold change vs veh, RASSF2 / RFU, WIPF1 / Fold change vs veh, WIPF1 / RFU, LARP1B / Fold change vs veh, LARP1B / RFU, RASA1 / Fold change vs veh, RASA1 / RFU, RB1 / Fold change vs veh, RB1 / RFU, PPFIA1 / Fold change vs veh, PPFIA1 / RFU, MAT2A / Fold change vs veh, MAT2A / RFU, CCT5 / Fold change vs veh, CCT5 / RFU, WDR92 / Fold change vs veh, WDR92 / RFU, CUX1 / Fold change vs veh, CUX1 / RFU, TTC7A / Fold change vs veh, TTC7A / RFU, TMEM135 / Fold change vs veh, TMEM135 / RFU, DEPTOR / Fold change vs veh, DEPTOR / RFU, CPM / Fold change vs veh, CPM / RFU, DNAJB6 / Fold change vs veh, DNAJB6 / RFU, CACNA2D3 / Fold change vs veh, CACNA2D3 / RFU, DTX4 / Fold change vs veh, DTX4 / RFU, TFCP2 / Fold change vs veh, TFCP2 / RFU, GMCL1 /// GMCL1P1 / Fold change vs veh, GMCL1 /// GMCL1P1 / RFU, AEBP2 / Fold change vs veh, AEBP2 / RFU, SNHG1 /// SNORD22 /// SNORD25 /// SNORD26 /// SNORD27 /// SNORD28 /// SNORD29 /// SNORD31 / Fold change vs veh, SNHG1 /// SNORD22 /// SNORD25 /// SNORD26 /// SNORD27 /// SNORD28 /// SNORD29 /// SNORD31 / Fold change (Aza/veh), C12orf56 (ProbeSet 11735607_a_at) / Fold change (ACY-1035/veh), C12orf56 (ProbeSet 11735607_a_at) / Fold change (Aza/veh), FGFR1OP (ProbeSet 11751329_s_at) / Fold change (ACY-1035/veh), FGFR1OP (ProbeSet 11751329_s_at) / Fold change (Aza/veh), VPS36 (ProbeSet 11739960_a_at) / Fold change (ACY-1035/veh), VPS36 (ProbeSet 11739960_a_at) / RFU SYPL1 (11715823_x_at) / Fold change /veh SYPL1 (11715823_x_at) / RFU IGFBP7 (11715501_s_at) / Fold change /veh IGFBP7 (11715501_s_at) / RFU REEP3 (11722064_at) / Fold change /veh REEP3 (11722064_at) / RFU IGLL1 (11728026_x_at) / Fold change /veh IGLL1 (11728026_x_at): dose or concentration left out as unconfirmed
Settings: ProbeSet 11727545_at; LIST B

`Nc1ncn([C@@H]2O[C@H](CO)[C@@H](O)[C@H]2O)c(=O)n1` [azacitidine] was tested, and the “RFU, PANK3” value was 82.98 RFU.
